What was measured:
Type in all cases: ADME, organism-based, Mesocricetus auratus
Conditions in all cases: in vivo
[1] = Cmax in golden hamster at 50 mg/kg, po; parameters: dose 50 mg/kg, route oral
[2] = Tmax in golden hamster at 50 mg/kg, po
[3] = AUC (0 to 24 hrs) in golden hamster at 50 mg/kg, po; parameters: dose 50 mg/kg, time < 24 hr, route oral

- Cmax [1]: 5680 ng/mL
- Tmax [2]: 1.33 h
- AUC(0-t) at 24 h [3]: 25400 ng·h/mL
SMILES: O=C(Nc1cc(-c2ccccn2)n[nH]1)N1CCN(c2ccc(F)cc2)CC1
